In this test the test system is L1210 leukemia ip in BDF1 mice, survival T/C. The test is described as follows: NCI In Vivo Anticancer Drug Screen. Data for tumor model L1210 Leukemia (intraperitoneal) in B6D2F1 (BDF1) mice. To be noted: endpoint: mean survival time, higher = longer survival. The procedure, abridged:
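Tumor cells were implanted, animals were treated, and survival was followed. The result divides the treated measurement by the vehicle-control measurement.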

The mark [1] stands for this setting: dose: 100.0 mg/kg/injection, schedule: Q04DX003 (ip), vehicle: saline with Tween-80.
The mark [2] stands for this setting: dose: 200.0 mg/kg/injection, schedule: Q04DX003 (ip), vehicle: saline with Tween-80.
The mark [3] stands for this setting: dose: 400.0 mg/kg/injection, schedule: Q04DX003 (ip), vehicle: saline with Tween-80.
Setting [4] is: dose: 100.0 mg/kg/injection, schedule: Q01DX001 (ip), vehicle: saline.
[5] abbreviates: dose: 200.0 mg/kg/injection, schedule: Q01DX001 (ip), vehicle: saline.
[6] abbreviates: dose: 400.0 mg/kg/injection, schedule: Q01DX001 (ip), vehicle: saline.
Setting [7] is: dose: 100.0 mg/kg/injection, schedule: Q04DX002 (ip), vehicle: saline.
The mark [8] stands for this setting: dose: 200.0 mg/kg/injection, schedule: Q04DX002 (ip), vehicle: saline.
The mark [9] stands for this setting: dose: 400.0 mg/kg/injection, schedule: Q04DX002 (ip), vehicle: saline.
[10] abbreviates: dose: 100.0 mg/kg/injection, schedule: Q01DX009 (ip), vehicle: saline with Tween-80.
The mark [11] stands for this setting: dose: 100.0 mg/kg/injection, schedule: Q04DX003 (ip), vehicle: saline.
Setting [12] is: dose: 200.0 mg/kg/injection, schedule: Q04DX003 (ip), vehicle: saline.
Where [13] appears, read: dose: 100.0 mg/kg/injection, schedule: Q04DX003 (ip), vehicle: Klucel (hydroxypropylcellulose) (HPC).
The mark [14] stands for this setting: dose: 200.0 mg/kg/injection, schedule: Q04DX003 (ip), vehicle: Klucel (hydroxypropylcellulose) (HPC).
The mark [15] stands for this setting: dose: 400.0 mg/kg/injection, schedule: Q04DX003 (ip), vehicle: Klucel (hydroxypropylcellulose) (HPC).
[16] abbreviates: dose: 25.0 mg/kg/injection, schedule: Q01DX009 (ip), vehicle: saline with Tween-80.
Where [17] appears, read: dose: 50.0 mg/kg/injection, schedule: Q01DX009 (ip), vehicle: saline with Tween-80.
Where [18] appears, read: dose: 50.0 mg/kg/injection, schedule: Q04DX003 (ip), vehicle: saline.
Where [19] appears, read: dose: 25.0 mg/kg/injection, schedule: Q01DX009 (ip), vehicle: saline.
The mark [20] stands for this setting: dose: 25.0 mg/kg/injection, schedule: Q04DX003 (ip), vehicle: saline.
Where [21] appears, read: dose: 50.0 mg/kg/injection, schedule: Q01DX009 (ip), vehicle: saline.

Results on 19 compounds are retold here after PubChem BioAssay AID248 (DTP/NCI, 2004).

Values joined by “and” are separate entries in the source; they are usually repeats but may differ in a detail not shown here. Equal values may be shown once. Inconclusive results and toxic doses are left out.

Turning to `COC(=O)CCc1c[nH]c2ccc(N(CCCl)CCCl)cc12`, the T/C was 104 % of control (dose: 0.06 mg/kg/injection, schedule: Q01DX015 (ip), vehicle: carboxymethylcellulose (CMC)); 105 % of control (dose: 0.13 mg/kg/injection, schedule: Q01DX015 (ip), vehicle: carboxymethylcellulose (CMC)); 110 % of control (dose: 0.25 mg/kg/injection, schedule: Q01DX015 (ip), vehicle: carboxymethylcellulose (CMC)); 120 % of control (dose: 0.5 mg/kg/injection, schedule: Q01DX015 (ip), vehicle: carboxymethylcellulose (CMC)); 100 % of control (dose: 1.0 mg/kg/injection, schedule: Q01DX015 (ip), vehicle: carboxymethylcellulose (CMC)); 118 % of control (dose: 1.9 mg/kg/injection, schedule: Q01DX009 (ip), vehicle: other). The T/C is 119 % of control (dose: 3.0 mg/kg/injection, schedule: Q01DX015 (ip), vehicle: carboxymethylcellulose (CMC)); 108 % of control (dose: 3.8 mg/kg/injection, schedule: Q04DX003 (ip), vehicle: saline); 115 % of control (dose: 7.5 mg/kg/injection, schedule: Q04DX003 (ip), vehicle: saline); 123 % of control (dose: 15.0 mg/kg/injection, schedule: Q01DX009 (ip), vehicle: other); 177 % of control (dose: 30.0 mg/kg/injection, schedule: Q04DX003 (ip), vehicle: saline).

In the case of `O=C(O)C(=S)Cc1cc(=O)[nH]c(=S)[nH]1`, the T/C under setting [1] was 102 % of control, the T/C under setting [2] is 97 % of control and the T/C under setting [3] is 92 % of control.

For the compound `N#Cc1ccc(S(N)(=O)=O)cc1`, the T/C under setting [4] is 100 % of control; the T/C (dose: 100.0 mg/kg/injection, schedule: Q01DX009 (ip), vehicle: acetone) was 98 % of control; the T/C (dose: 100.0 mg/kg/injection, schedule: Q04DX003 (ip), vehicle: acetone) is 96 % of control; the T/C under setting [5] is 94 % of control; the T/C (dose: 200.0 mg/kg/injection, schedule: Q04DX003 (ip), vehicle: acetone) is 94 % of control; the T/C under setting [6] is 120 % of control. Also, under “dose: 400.0 mg/kg/injection, schedule: Q04DX003 (ip), vehicle: acetone”, the T/C was 100 % of control.

As to `CCC(O)C(CCN(C)C)(CN(C)C)c1ccccc1` (stereo unspecified), the T/C by setting is: (dose: 75.0 mg/kg/injection, schedule: Q01DX001 (ip), vehicle: carboxymethylcellulose (CMC)) 94 % of control; (dose: 150.0 mg/kg/injection, schedule: Q01DX001 (ip), vehicle: carboxymethylcellulose (CMC)) 102 % of control.

On to `C=CCCCCCCCCC(=O)N/N=C/c1cccc(OC)c1OC`, for which the T/C by setting is: under setting [7], 95 % of control; under setting [8], 103 % of control; under setting [9], 106 % of control.

As for `CC1=C(N)NN(O)C=C1`, the T/C by setting is: under setting [7], 104 % of control; under setting [8], 116 % of control; under setting [9], 101 % of control.

For the compound `NC1=NC(c2ccccc2)C2=C(N1)C(=O)N(c1ccc(Br)cc1)C2` (stereo unspecified), the T/C (dose: 18.75 mg/kg/injection, schedule: Q01DX009 (ip), vehicle: saline) is 88 % of control; the T/C (dose: 37.5 mg/kg/injection, schedule: Q01DX009 (ip), vehicle: saline) was 86 % of control; the T/C (dose: 75.0 mg/kg/injection, schedule: Q01DX001 (ip), vehicle: saline) is 93 % of control; the T/C (dose: 75.0 mg/kg/injection, schedule: Q01DX009 (ip), vehicle: saline) is 91 % of control; the T/C (dose: 150.0 mg/kg/injection, schedule: Q01DX001 (ip), vehicle: saline) is 90 % of control; the T/C (dose: 300.0 mg/kg/injection, schedule: Q01DX001 (ip), vehicle: saline) is 95 % of control.

Regarding `S=C(S)N1CCC(CC2CCN(C(=S)S)CC2)CC1`, the T/C by setting is: under setting [10], 98 % of control; under setting [1], 102 % of control; (dose: 200.0 mg/kg/injection, schedule: Q01DX009 (ip), vehicle: saline with Tween-80) 93 % of control; under setting [2], 96 % of control; under setting [3], 86 % of control.

`O=P(OCCCl)(OCCCl)OCCCl`: the T/C reads like this: under setting [11], 102 % of control; under setting [12], 102 % of control; (dose: 400.0 mg/kg/injection, schedule: Q04DX003 (ip), vehicle: saline) 103 % of control.

For the compound `Cn1c(=O)[nH]cc(C(=O)O)c1=O`, the T/C is, setting by setting: under setting [13], 91 % of control; under setting [14], 92 % of control; under setting [15], 91 % of control.

Turning to `CC(=O)Nc1cc(Cl)ccc1C`, the T/C was 93 % of control under setting [16]; 90 % of control under setting [17]; 95 % of control under setting [18]; 89 % of control under setting [10]; 97 % of control under setting [11]; 100 % of control under setting [12].

With `CC1(C)OC2C(COC(N)=O)OC(n3cnc4c(=O)[nH]c(N)nc43)C2O1` (stereo unspecified), the T/C (dose: 100.0 mg/kg/injection, schedule: Q01DX005 (ip), vehicle: saline) is 105 % of control and the T/C (dose: 200.0 mg/kg/injection, schedule: Q01DX005 (ip), vehicle: saline) is 103 % of control.

Turning to `CCCCCCCCCCCCCCCC(=O)OCc1cc(=O)c(O)co1`, the T/C is, setting by setting: (dose: 100.0 mg/kg/injection, schedule: Q01DX009 (ip), vehicle: Klucel (hydroxypropylcellulose) (HPC)) 95 % of control; under setting [13], 91 % of control; (dose: 200.0 mg/kg/injection, schedule: Q01DX009 (ip), vehicle: Klucel (hydroxypropylcellulose) (HPC)) 101 % of control; under setting [14], 94 % of control; (dose: 400.0 mg/kg/injection, schedule: Q01DX009 (ip), vehicle: Klucel (hydroxypropylcellulose) (HPC)) 97 % of control; under setting [15], 94 % of control.

With `N#C/C(=C\c1ccccc1)C(=O)Nc1ccccc1`, the T/C under setting [13] is 94 % of control, the T/C under setting [14] is 92 % of control and the T/C under setting [15] was 92 % of control.

Consider `c1ccc(C2=NCCCO2)cc1`, for which the T/C (dose: 12.5 mg/kg/injection, schedule: Q01DX009 (ip), vehicle: saline with Tween-80) is 100 % of control; the T/C under setting [16] is 103 % of control; the T/C under setting [17] is 102 % of control; the T/C under setting [18] is 91 % of control; the T/C under setting [10] is 102 % of control; the T/C under setting [11] was 96 % of control.

For `CC1C=CC(C(N)C(=O)O)O1` (stereo unspecified), the T/C was 103 % of control under setting [4], 95 % of control under setting [5] and 101 % of control under setting [6].

Regarding `CCCCCC(CN(C)C)C(O)/C=C/c1ccccc1Cl` (stereo unspecified), the T/C under setting [19] is 102 % of control; the T/C under setting [20] was 96 % of control; the T/C under setting [21] is 94 % of control; the T/C under setting [18] is 97 % of control; the T/C under setting [11] is 95 % of control and 88 % of control.

In the case of `COc1cc(CC(=O)C(=O)O)oc(=O)c1`, the T/C reads like this: under setting [1], 102 % of control; under setting [2], 95 % of control; under setting [3], 98 % of control.

In the case of `COC(=O)c1cn[nH]c1N1CC[N+](CCCl)=N1`, the T/C reads like this: under setting [19], 97 % of control; under setting [20], 102 % of control; under setting [21], 106 % of control; under setting [18], 104 % of control; under setting [4], 100 % of control; under setting [11], 104 % of control.
